Read-outs that look alike come from different tables or passages of the source.
T1: ExsA (Pseudomonas aeruginosa, UniProt P26993)
T1 construct: made in house
T1 sequence (P26993 1-278): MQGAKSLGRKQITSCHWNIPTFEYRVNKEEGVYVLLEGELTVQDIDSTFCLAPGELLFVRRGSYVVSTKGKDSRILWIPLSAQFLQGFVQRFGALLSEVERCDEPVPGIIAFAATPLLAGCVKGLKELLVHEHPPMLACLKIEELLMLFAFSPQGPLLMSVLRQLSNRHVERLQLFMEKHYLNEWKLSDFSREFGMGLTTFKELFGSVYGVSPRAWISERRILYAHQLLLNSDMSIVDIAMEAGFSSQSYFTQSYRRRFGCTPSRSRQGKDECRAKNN

T2: Rob (Escherichia coli, UniProt P0ACI0)
T2 sequence (P0ACI0 1-289): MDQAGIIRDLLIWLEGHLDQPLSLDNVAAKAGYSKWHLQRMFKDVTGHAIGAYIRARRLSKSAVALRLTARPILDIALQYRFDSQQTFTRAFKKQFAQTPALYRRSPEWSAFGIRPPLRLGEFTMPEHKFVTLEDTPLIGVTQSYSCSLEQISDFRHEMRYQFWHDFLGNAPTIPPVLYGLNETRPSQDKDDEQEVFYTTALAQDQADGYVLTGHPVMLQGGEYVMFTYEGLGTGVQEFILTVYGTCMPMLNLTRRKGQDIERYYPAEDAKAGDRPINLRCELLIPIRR

T3: Rma (Salmonella typhimurium, UniProt H9L484)
T3 construct: fused on or other part: 6-histidine tag
T3 sequence (H9L484 1-113): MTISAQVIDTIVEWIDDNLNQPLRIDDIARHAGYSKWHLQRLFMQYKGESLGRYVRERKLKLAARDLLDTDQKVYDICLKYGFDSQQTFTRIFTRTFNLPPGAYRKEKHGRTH

T4: SoxS (Escherichia coli, UniProt P0A9E2)
T4 sequence (P0A9E2 1-107): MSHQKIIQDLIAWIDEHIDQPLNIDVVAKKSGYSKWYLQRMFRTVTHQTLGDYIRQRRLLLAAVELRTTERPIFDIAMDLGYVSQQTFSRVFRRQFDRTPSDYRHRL

T5: SlyA (Escherichia coli, UniProt P0A8W2)
T5 sequence (P0A8W2 1-144): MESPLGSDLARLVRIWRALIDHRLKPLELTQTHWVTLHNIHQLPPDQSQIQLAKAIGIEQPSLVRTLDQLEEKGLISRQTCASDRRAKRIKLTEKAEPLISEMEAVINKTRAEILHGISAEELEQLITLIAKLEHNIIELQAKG

T6: MarA (Escherichia coli, UniProt P0ACH5)
T6 sequence (P0ACH5 1-127): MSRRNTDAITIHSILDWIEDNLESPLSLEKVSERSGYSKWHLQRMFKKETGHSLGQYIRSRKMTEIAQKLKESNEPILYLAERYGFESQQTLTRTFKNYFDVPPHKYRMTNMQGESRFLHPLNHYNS

B1: LANCE target DNA (SEQ ID NO. 1) (dsDNA)
DNA 1: CCGATTTAGCAAAACGTGGCATCGGTC
DNA 2: GACCGATGCCACGTTTTGCTAAATCGG

Tests used:
[1] = tested on: E. coli UPEC strain C189; assay: Ascending pyelonephritis model of infection (Example 3); assay type: in vivo; details: female CD1 mice, oral dosing at infection and once a day for 4 days, 5-day infection
[2] = molecular target: LcrF (VirF) (Yersinia pestis, UniProt P28808); assay: biochemical; assay type: binding, Y. pseudotuberculosis; details: EC50 for inhibition of LcrF(VirF)-DNA binding
Chain of LcrF (VirF) (P28808 whole entry, looked up): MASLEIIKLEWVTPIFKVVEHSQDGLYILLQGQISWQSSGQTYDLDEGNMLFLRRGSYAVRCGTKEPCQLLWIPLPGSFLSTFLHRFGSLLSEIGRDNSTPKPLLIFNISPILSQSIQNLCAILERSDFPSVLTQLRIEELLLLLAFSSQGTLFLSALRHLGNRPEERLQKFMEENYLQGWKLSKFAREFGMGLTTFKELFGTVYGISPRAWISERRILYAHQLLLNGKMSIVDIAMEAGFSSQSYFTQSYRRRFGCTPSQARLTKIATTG

[3] = tested on: Y. pseudotuberculosis; details: in vivo, sc, 25 mg/kg
[4] = tested on: Y. pseudotuberculosis; details: in vivo, sc, 25 mg/kg; remark: listed apart in the source
[5] = molecular target: T1, ExsA; assay: Chemiluminescence-based ExsA-DNA binding assay; design: species or system P. aeruginosa; details: read-out: ExsA EC50
[6] = tested on: Y. pseudotuberculosis; assay: microbe, parasite or virus in culture; details: Yersinia pseudotuberculosis, J774, read-out: % Cytotoxicity
[7] = tested on: P. aeruginosa PA103; assay: Lethal P. aeruginosa pneumonia model in mice; assay type: in vivo; details: IP 25 mg/kg, 10^6 organisms intranasally, FIG. 5 and 6
[8] = tested on: E. coli C189 (clinical cystitis isolate); assay: E. coli ascending pyelonephritis model, compound GM (Example 4); assay type: in vivo; details: CD1 mice
[9] = molecular target: T2, Rob; assay: Chemiluminescence-based Rob-DNA binding assay; design: species or system E. coli; details: Table 10
[10] = molecular target: T3, Rma; assay: Chemiluminescence-based Rma-DNA binding assay; design: species or system S. typhimurium; details: Table 10
[11] = molecular target: T4, SoxS; assay: Chemiluminescence-based SoxS-DNA binding assay; design: made in house; species or system E. coli
[12] = tested on: uncut plasmid DNA; assay: Qualitative agarose gel DNA intercalation assay; assay type: binding; details: 100 ng uncut plasmid DNA, compared with a known DNA intercalator
[13] = molecular target: T5, SlyA; assay: biochemical; assay type: binding, E. coli
[14] = molecular target: T6, MarA; assay: Chemiluminescence-based MarA-DNA binding assay; design: species or system E. coli; details: Table 10
[15] = molecular target: ExsA (Pseudomonas aeruginosa, UniProt P26993 P26993:1-278); assay: LANCE TR-FRET; same buffer; basis of inhibitor screen; details: tags: 6xHis; label: N-term (5') biotin
[16] = dose response analysis (footnote c), read-out: in vitro SoxS activity: concentration necessary to inhibit DNA-protein binding by 50% (EC50)

Molecule | Efficacy (log10 decrease in the CFU/g kidney tissue) [1] | EC50 [2] | percent of the starting weight of the infected mice [3] | percent survival of infected mice [3] | Log Decrease in CFU/g Lung Tissue [4] | EC50 ([5]; Table 7, cell-free system) | activity at 50 µg/mL [6] | EC50 ([5]; Table 10) | EC50 [9] | EC50 [10] | EC50 ([11]; Table 10, read-out: SoxS EC50) | other results
O=C(Nc1ccc(-c2nc3ccc([N+](=O)O)cc3n2O)cc1)c1ccc(-c2cnco2)cc1 [H] | ** (exhibited a 1.1-2.0 log decrease in CFU/g) | 10 to 25 µM | approximately 100% | 80% | *** (key: ***: exhibited a 0-1.0 log decrease in the CFU/g of LcrF in lung tissue; **: exhibited a 1.1-2.0 log decrease in the CFU/g of LcrF in lung tissue; --: exhibited no efficacy) | < 10 µM | < 75% |  |  |  |  | 
O=C(Nc1ccc(-c2nc3ccc([N+](=O)[O-])cc3n2O)cc1)c1ccc(-n2ccnc2)cc1 [I] |  | < 10 µM |  |  |  | 10 to 25 µM |  |  |  |  |  | survival at 48 hours post infection [7]: 50%
O=C(/C=C/c1ccc(F)cc1)Nc1ccc(-c2nc3ccc([N+](=O)[O-])cc3n2O)cc1 [M] | *** (exhibited a 0-1.0 log decrease in CFU/g) | < 10 µM | approximately 120% | 80% | ** (key: ***: exhibited a 0-1.0 log decrease in the CFU/g of LcrF in lung tissue; **: exhibited a 1.1-2.0 log decrease in the CFU/g of LcrF in lung tissue; --: exhibited no efficacy) | < 10 µM | < 75% |  |  |  |  | 
Cc1ccc(COn2c(-c3ccccc3)nc3ncccc32)cc1 [GM] |  |  |  |  |  |  |  |  |  |  |  | Difference between vehicle treated and compound dose group (kidneys harvested 5 days post infection) ([8]; single dose at the time of infection, 100 mg/kg, p<0.003): statistically significant difference; Difference between untreated (vehicle) and compound dose groups (kidneys harvested 5 days post infection) ([8]; subcutaneous at 0, 6, 24, 30, 48, 54, 72 and 96 hours post-infection, 1, 5 and 20 mg/kg, p<0.05): statistically significant difference
O=C(Nc1ccc(-c2nc3ccc([N+](=O)[O-])cc3n2O)cc1)c1ccc(F)cc1 [C] |  | 10 to 25 µM |  |  |  | < 10 µM | 75 to 99% | 1 to 4.9 µM | 1 to 4.9 µM | 1 to 4.9 µM | 1 to 4.9 µM | 
O=[N+]([O-])c1ccc2nc(-c3ccc(-c4ccccc4)o3)n(O)c2c1 [BQ] | ** (exhibited a 1.1-2.0 log decrease in CFU/g) |  |  |  |  |  |  | > 5 µM | > 5 µM | > 5 µM | 1 to 4.9 µM | ability to intercalate DNA [12]: not found to intercalate DNA; EC50 [13]: > 5 µM; EC50 [14]: > 5 µM; EC50 [11, 16]: > 5 µM
CN(C)c1ccc(C(=O)Nc2ccc(-c3nc4ccc([N+](=O)[O-])cc4n3O)cc2)cc1 [AH] |  |  |  |  |  | > 25 µM |  | 1 to 4.9 µM | 1 to 4.9 µM | 1 to 4.9 µM | < 0.9 µM | EC50 [13]: > 5 µM; EC50 [14]: 1 to 4.9 µM; EC50 [11, 16]: < 0.9 µM
CC(=O)c1ccc(C(=O)Nc2ccc(-c3nc4ccc([N+](=O)O)cc4n3O)cc2)cc1 [F] | ** (exhibited a 1.1-2.0 log decrease in CFU/g) | 10 to 25 µM | approximately 100% | 60% | ** (key: ***: exhibited a 0-1.0 log decrease in the CFU/g of LcrF in lung tissue; **: exhibited a 1.1-2.0 log decrease in the CFU/g of LcrF in lung tissue; --: exhibited no efficacy) | 10 to 25 µM | < 75% |  |  |  |  | 
B1 |  |  |  |  |  |  |  |  |  |  |  | binding result [15]: binds
